# From patent publication US20250277029A1, “CANNABINOID TYPE 1 RECEPTOR BINDING PROTEINS AND USES THEREOF” (AMGEN INC., priority 2022, published 2025)
# Test system: JAX WT DIO
# Test: Rimonabant 3 mg/kg QD in JAX WT DIO mice (12 weeks HFD): body weight, fat mass, liver weight
# Assay type: in vivo, mouse
# Details: JAX WT DIO (12 weeks HFD), 3 mg/kg (6.5 μmol/kg, QD)
smiles,measurement,setting,value
"Cc1c(C(=O)NN2CCCCC2)nn(-c2ccc(Cl)cc2Cl)c1-c1ccc(Cl)cc1 [Rimonabant, rimonabant]",Fat Mass % Change,Day 15,−23%
same,Liver Weight % Change (Day),Day 17,−7%
same,BW % Change,day 17,−12.9%
